According to US9012420B2, “Aptamer for chymase, and use thereof” (Ribomic Inc., priority 2009, dated 2015):
Oligonucleotides are written 5' to 3', each unit as a sugar letter and its base; * is a phosphorothioate linkage, no mark a phosphodiester; rarer units and linkages stand in square brackets, end groups in braces. Plain capitals give the bases only. r = 2'-OH (RNA); f = 2'-fluoro

T1: chymase (recombinant, manufactured by SIGMA) (Homo sapiens, UniProt P23946)
T1 construct: purchased SIGMA; host or cells: yeast
T1 sequence (P23946 22-247): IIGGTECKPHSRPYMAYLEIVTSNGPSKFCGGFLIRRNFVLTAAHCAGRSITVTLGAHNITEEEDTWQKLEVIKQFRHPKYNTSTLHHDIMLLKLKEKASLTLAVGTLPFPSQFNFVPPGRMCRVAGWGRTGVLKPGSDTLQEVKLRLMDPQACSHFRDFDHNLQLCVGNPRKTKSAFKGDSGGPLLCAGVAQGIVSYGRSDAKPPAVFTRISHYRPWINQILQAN

T2: chymase (Homo sapiens, UniProt P23946)
T2 sequence (P23946 22-247): T1 sequence (P23946 22-247)

B1: 34 (nucleic acid)
chain: rGrGrGrAfCrGrGfUrArGrGrArAfUfUfCfUrGfCfCrGfCrArAfCfCfCrArAfUrGrArArArAfCrGrArArGrAfUrArGrArGrAfUrArArAfUfCrGrArAfCrAfUrArGrArArGrArGfCrGrGfCfCrGfC
modifications: aptamer
B2: 33 (nucleic acid)
chain: rGrGrGrAfCrGrGfUrArGrGrArAfUfUfCfCfUrGfUfCfUfUfUfUfCfCfCrAfCrGfCrArAfCrArArAfUfUrAfCrArGrArGfCfUfUfUrGfCrArArArAfCrAfUrArGrArArGrArGfCrGrGfCfCrGfC
modifications: aptamer
B3: 7 (nucleic acid)
chain: rGrGrGrAfCrGrGfUrArGrGrArAfUfUfCrAfCfCfUfUfUfCfCrArAfUfUrGfUrGrArArArGrArArAfCrAfCrArArArArArGrArArAfUrGrAfCrAfUfCrAfUrArGrArArGrArGfCrGrGfCfCrGfC
modifications: aptamer
B4: 6 (nucleic acid)
chain: rGrGrGrAfCrGrGfUrArGrGrArAfUfUfCfUrAfCrGrGfUfCfUrGfUrGfUrGrArArAfUfUrGrArArAfCrAfCrAfCrArArArGrArAfCrArAfUrArGrAfCrAfUrArGrArArGrArGfCrGrGfCfCrGfC
modifications: aptamer
B5: 32 (nucleic acid)
chain: rGrGrGrAfCrGrGfUrArGrGrArAfUfUfCrGfUfCfCfUfCrAfUrGfUfCfUrAfUfUfUfUrGfCrArGrAfUrArGrAfCfUfUrArArArGfCrArArAfCrAfUrArGrArArGrArGfCrGrGfCfCrGfC
B6: 5 (nucleic acid)
chain: rGrGrGrAfCrGrGfUrArGrGrArAfUfUfCfCfCrAfCfUfUrGfUfCfUfUfUrGrArGrGfCrArArGrArArAfUfUrGfUrAfUfUfCfCrGrArArGrArArGfCrAfUrArGrArArGrArGfCrGrGfCfCrGfC
modifications: aptamer

Tests used:
[1] = target: T1, chymase (recombinant, manufactured by SIGMA); test: Surface plasmon resonance (Biacore T100), chymase immobilized on CM5 chip, nucleic acid injected as analyte; assay type: binding; set-up: key to Binding activity as determined using Biacore: ++: a sequence that binds to chymase significantly more strongly than the negative control 40N; +: a sequence that binds to chymase equivalently compared with the negative control 40N; key to binding activity using Biacore: ++: significant binding to chymase than SEQ ID NO: 58 which is a negative control; +: similar binding level as SEQ ID NO: 58 which is a negative control; conditions: for Binding activity as determined using Biacore: Table 4, about 4000 RU chymase immobilized, nucleic acid 0.3 μM, solution C, compared with 40N; for binding activity using Biacore: Table 5, same manner as Example 4, compared with SEQ ID NO: 58
Method: In another method, chymase is first immobilized onto a sensor chip, the amount immobilized being about 4000 RU. 20 μL of an aptamer solution for analyte, prepared at 0.01 μg/μL, is injected, and the binding of the aptamer to chymase is detected. An RNA containing a random nucleotide sequence of 30 or 40 nucleotides is used as a negative control.
Whether these nucleic acids bind to chymase was determined by the surface plasmon resonance method. Measurements were taken using Biacore T100 (manufactured by GE Healthcare) as described below. About 4000 RU of chymase (recombinant, manufactured by SIGMA) was immobilized on the sensor chip surface of a CM5 chip, using an amine coupling kit. 20 μL of each nucleic acid, prepared at 0.3 μM, as an analyte was injected at a flow rate of 20 μL/min. Solution C was used as a running buffer. The method of evaluation used was the same as Example 1.
All nucleic acids of SEQ ID NO: 58-68 were prepared by chemical synthesis. Whether these nucleic acids are bound to chymase was assessed by surface plasmon resonance method in the same manner as in Example 4. The inhibitory activity on chymase was measured in the same manner as in Example 3.
All nucleic acids of SEQ ID NOs: 73-79, 56(8), 80, 56(10), 81, 56(13)-56(14), 83-87 were prepared by chemical synthesis. Whether these nucleic acids are bound to chymase was assessed by surface plasmon resonance method in the same manner as in Example 4.
All nucleic acids of SEQ ID NO: 88-120, 121, 69, 122, 123, 70-72, 124-131 were prepared by chemical synthesis. Whether these nucleic acids are bound to chymase was assessed by surface plasmon resonance method in the same manner as in Example 4.

[2] = target: T1, chymase (recombinant, manufactured by SIGMA); test: Chymase inhibitory activity using synthetic substrate Suc-Ala-Ala-Pro-Phe-MCA; assay type: biochemical
Method: A first method employs a synthetic substrate. A useful chymase substrate is Suc-Ala-Ala-Pro-Phe-MCA (4-methylcoumaryl-7-amide group) (manufactured by Peptide Institute, Inc.), which contains the 4-amino acid peptide “Ala-Ala-Pro-Phe”, a standard substrate for chymotrypsin-like proteases.
The assay is performed using a 96-well plate (F16 Black Maxisorp Fluoronunc, manufactured by Nunc), with a reaction mixture volume of 100 μL, in a buffer solution (solution C; see Example 2 below). First, each nucleic acid is prepared in solution C to obtain 50 μL solutions. After 10 μL of the 1 mM substrate prepared in solution C is added, the plate is set to the microplate reader SpectraMax190 (manufactured by Molecular Devices Corporation), and incubated at 37° C. for 5 minutes. Separately, 0.05 μg of chymase (recombinant, manufactured by SIGMA) is diluted in solution C, and 40 μL of this dilution is incubated at 37° C. for 5 minutes. The chymase solution is added to the mixture of the nucleic acid and substrate to initiate an enzyme reaction. The plate containing the reaction mixture is set to the microplate reader SpectraMax190 (manufactured by Molecular Devices Corporation), and examined for time-dependent changes in the fluorescence intensity at 37° C. for 5 minutes (excitation wavelength 380 nm, detection wavelength 460 nm). A linear approximation of the increase in the fluorescence of the AMC (7-amino-4-methylcoumarine) released from the substrate by chymase activity is generated, and its slope is taken as the initial reaction velocity. For control, samples are treated and analyzed in the same manner in two cases: use of a nucleic acid pool containing a random sequence of 30 or 40 nucleotides (negative control), and use of chymostatin, a known chymotrypsin-like serine protease inhibitor (positive control). Taking the initial reaction velocity without the nucleic acid and inhibitor as a 100% enzyme activity, the inhibitory rate for each test substance is calculated, and the inhibitor concentration required to cause a 50% inhibition of the enzyme activity (IC50) is determined.
Whether the nucleic acids shown by SEQ ID NO: 4-20, 22-34, and 38-48 inhibit the enzyme activity of chymase was determined as described below. The chymase substrate used was Suc-Ala-Ala-Pro-Phe-MCA (manufactured by Peptide Institute, Inc.), which contains the 4-amino-acid peptide Ala-Ala-Pro-Phe, a standard substrate for chymotrypsin-like proteases. Here, Suc is a protecting succinyl group, and MCA is a 4-methylcoumaryl-7-amide group; upon cleavage of the C-terminal side of phenylalanine, AMC (7-amino-4-methylcoumarine) is released. By detecting the fluorescence of this AMC, the enzyme activity of chymase can be determined. The assay was performed using a 96-well plate (F16 Black Maxisorp Fluoronunc, manufactured by Nunc), with a reaction mixture volume of 100 μL, in solution C as a buffer solution. First, each nucleic acid was serially diluted to 0.0027-2 μM concentrations in solution C to obtain 50 μL solutions. After 10 μL of the 1 mM substrate prepared in solution C was added thereto, the plate was set to the microplate reader SpectraMax190 (manufactured by Molecular Devices Corporation), and incubated at 37° C. for 5 minutes. Separately, 0.05 μg (or 0.005 μg) of chymase (recombinant, manufactured by SIGMA) was diluted in solution C to obtain a 40 μL chymase solution, and incubated at 37° C. for 5 minutes. The chymase solution was added to the mixture of the nucleic acid and substrate to initiate an enzyme reaction. The final chymase concentration in the reaction mixture was 16.7 nM (or 1.67 nM), the final substrate concentration being 100 μM. The plate containing the reaction mixture was set to the microplate reader SpectraMax190 (manufactured by Molecular Devices Corporation), and examined for time-dependent changes in the fluorescence intensity at 37° C. for 5 minutes (or 30 minutes) (excitation wavelength 380 nm, detection wavelength 460 nm). […]

chymase = target: T2, chymase; test: Surface plasmon resonance (Biacore T100), aptamer immobilized on SA chip, chymase injected as analyte; assay type: binding; set-up: key: ++: a sequence that binds to chymase significantly more strongly than the negative control 40N; +: a sequence that binds to chymase equivalently compared with the negative control 40N; conditions: Table 1; about 1000 RU nucleic acid immobilized, chymase 0.2 μM analyte, running buffer solution A; compared with 40N
Method: Binding strength is measured using Biacore T100 (manufactured by GE Healthcare). In a method of measurement, the aptamer is first immobilized onto a sensor chip, the amount immobilized being about 1000 RU. 20 μL of a chymase solution for analyte, prepared at 0.2 μM, is injected, and the binding of chymase to the aptamer is detected. An RNA comprising a random nucleotide sequence of 30 or 40 nucleotides is used as a negative control.
The binding activities against chymase of the nucleic acids shown by SEQ ID NO: 4-20 and 22-34 were determined by the surface plasmon resonance method using Biacore T100 (manufactured by GE Healthcare). The sensor chip used was the SA chip, which had streptavidin immobilized thereon. Bound thereto was about 1500 RU of a 16-nucleotide Poly dT with biotin bound to the 5′ end thereof. […] 20 μL of chymase for analyte, prepared at 0.2 μM, was injected. Solution A was used as a running buffer.
The binding activities against chymase of the nucleic acids shown by SEQ ID NO: 38-48 were evaluated by the surface plasmon resonance method. In the evaluations for SEQ ID NO: 38-48, measurements were taken in the same manner as Example 1. Solution C was used as a running buffer.

[3] = Table 4, same manner as Example 3, mean value for 2 to 3 measurements
[4] = Table 5, same manner as Example 3, mean value of two measurements
[5] = Table 3, substrate 100 μM, solution C, 37° C., mean value for 2 to 3 measurements

Molecule	Binding activity as determined using Biacore [1]	IC50 [2, 3] [nM]	Binding activity as determined using Biacore (chymase)	IC50 [2, 5] [nM]	also measured
49 (GGUUCUACAGAUAGAGAUAAAGUAGAACC; 2'-fluoro at CU, RNA at AG, backbone not given here) [compound 49]	++	117 ± 66	–	–	–
50 (GGCAUUCUACAGAUAGAGAUAAAGUAGAAUUUAAC; 2'-fluoro at CU, RNA at AG, backbone not given here) [compound 50]	++	138 ± 93	–	–	–
51 (CGUUACAUAAUGUAUAUACCAGGGUAACUAAACAUAGAAGAGCGG; 2'-fluoro at CU, RNA at AG, backbone not given here) [compound 51]	++	24 ± 9	–	–	–
52 (CCGUAUAUACCAGGGUAACUAAACGG; 2'-fluoro at CU, RNA at AG, backbone not given here) [compound 52]	+	> 1000	–	–	–
57 (GCAUUUGAGAUAGAUUUAAACAAACGC; 2'-fluoro at CU, RNA at AG, backbone not given here) [compound 57]	++	99 ± 13	–	–	–
59 (GGGUUAGAUAGAGAUAAAAACCC; 2'-fluoro at CU, RNA at AG, backbone not given here) [compound 59]	–	–	–	–	binding activity using Biacore [1]: ++; IC50 [2, 4]: 38 ± 9 nM
60 (GGGUUAGAUAGAGCUAAAAACCC; 2'-fluoro at CU, RNA at AG, backbone not given here) [compound 60]	–	–	–	–	binding activity using Biacore [1]: ++; IC50 [2, 4]: 26 ± 6 nM
61 (GGGUUAGAUAGAUUUAAAAACCC; 2'-fluoro at CU, RNA at AG, backbone not given here) [compound 61]	–	–	–	–	binding activity using Biacore [1]: ++; IC50 [2, 4]: 23 ± 6 nM
62 (GGGUUGGAUAGAGUUAAGAACCC; 2'-fluoro at CU, RNA at AG, backbone not given here) [compound 62]	–	–	–	–	binding activity using Biacore [1]: ++; IC50 [2, 4]: 29 ± 4 nM
B1	–	–	+	137 ± 9	–
B2	–	–	+	145 ± 88	–
B3	–	–	++	> 500	–
B4	–	–	++	456 ± 261	–
B5	–	–	+	235 ± 55	–
B6	–	–	++	80 ± 39	–
